Data published in patent US9789119B2, “Cognitive function” (priority 2010, dated 2017).
“Also recorded” adds a separate entry of the source.

Key:
[1] = tested on: Ts65Dn mice; conditions: short-term administration of low doses; cited from earlier work
[2] = tested on: wild-type (2N) mice; assay: Novel Object Recognition (NOR) task in wild-type (2N) mice; format: in vivo, mouse; conditions: 0.3 mg/kg IP daily for two weeks, light cycle (FIG. 1 panel B)
Experimental: (§1) The NOR task is based on the established finding that mice preferentially explore novel objects relative to remembered objects. The test consists of a training session and a testing session. During the training session, a mouse is allowed 15 minutes to explore freely a training chamber that contains two objects. The amount of time the mouse uses to explore each object is quantified using video monitoring. The mouse is removed from the training session for 24 hours, during which time one of the objects in the training chamber is replaced with a novel object. The mouse is returned to the training chamber for the testing session, during which video monitoring is again used to quantify the amount of time the mouse uses to explore each object.
Ts65Dn mice and wild-type (2N) controls were maintained on a 12:12 light:dark (LD) cycle. At three months of age, their NOR task performance was determined. The animals then received daily intraperitoneal (IP) injections of pentylenetetrazole (PTZ; 0.3 mg/kg) for two weeks (“treatment”). A control group received vehicle control (saline; NaCl) only for the same duration. The IP injections occurred near the middle of the light phase or during the dark phase of a LD cycle. Two weeks after treatment end, the NOR task performance of all mice was again determined. All NOR tasks were performed during the light phase of a LD cycle. […]

[3] = tested on: Ts65Dn mouse model of Down syndrome; assay: Novel Object Recognition (NOR) task in Ts65Dn mice; format: in vivo; conditions: 0.3 mg/kg IP daily for two weeks, NOR two weeks after treatment end
Experimental: In this case, the effect of the noncompetitive GABAA receptor antagonist pentylenetetrazole (PTZ) on cognitive function in the Ts65Dn mouse model of Down syndrome was assessed with the Novel Object Recognition (NOR) task.
as §1
Ts65Dn mice and wild-type (2N) controls were maintained on a 12:12 light:dark (LD) cycle. At three months of age, their NOR task performance was determined. The animals then received daily intraperitoneal (IP) injections of pentylenetetrazole (PTZ; 0.3 mg/kg) for two weeks (“treatment”). […] Two weeks after treatment end, the NOR task performance of all mice was again determined. […]

Row | Compound | cognitive function [1] | hippocampal LTP induction [1] | time spent exploring objects in NOR task [2] | performance in the Novel Object Recognition (NOR) task ([3]; dark phase (wakefulness)) | performance in the Novel Object Recognition (NOR) task ([3]; middle of light phase (sleep))
1 | CC(C)(C)[C@]1(O)CC2OC(=O)CC23C(=O)OC2OC(=O)[C@H](O)C231 (stereo partly drawn) [BB, bilobalide] | improve in a long-lasting manner | improve in a long-lasting manner |  |  | 
2 | C1CCc2nnnn2CC1 [PTZ, pentylenetetrazole] | improve in a long-lasting manner | improve in a long-lasting manner | more time on the new object during the testing session | some improvement relative to the saline-injected controls; also recorded: less effective in improving performance in the NOR task; also recorded: less effective in improving cognitive function | spent a significantly larger proportion of time of the testing session exploring the novel object; also recorded: normalizes performance in the Novel Object Recognition (NOR) task; also recorded: can improve cognition
3 | picrotoxin [PTX] | improve in a long-lasting manner | improve in a long-lasting manner |  |  | 
